What is called Kd is a measure of binding affinity in units of concentration. Low readings indicate higher affinity, high ones lower affinity.

The target of this experiment is T1, ECHS1 (short-chain enoyl-CoA hydratase) (Homo sapiens, UniProt P30084).
T1 sequence (P30084 28-290): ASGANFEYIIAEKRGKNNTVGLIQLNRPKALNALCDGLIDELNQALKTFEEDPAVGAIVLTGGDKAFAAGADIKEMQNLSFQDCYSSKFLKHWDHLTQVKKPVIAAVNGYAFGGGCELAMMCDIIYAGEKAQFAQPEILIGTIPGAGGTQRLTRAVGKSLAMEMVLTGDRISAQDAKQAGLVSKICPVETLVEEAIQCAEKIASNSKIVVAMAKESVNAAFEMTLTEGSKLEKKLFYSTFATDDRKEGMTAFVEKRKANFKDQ
Nature of the experiment: SPR. In kind it is binding.
Turning to `CC(=O)CC(=O)SCCNC(=O)CCNC(=O)[C@H](O)C(C)(C)COP(=O)(O)OP(=O)(O)OC[C@H]1O[C@@H](n2cnc3c(N)ncnc32)[C@H](O)[C@@H]1OP(=O)(O)O` [acetoacetyl-CoA], the Kd is 2.69 µM.
As to `C/C=C/C(=O)SCCNC(=O)CCNC(=O)[C@H](O)C(C)(C)COP(=O)(O)OP(=O)(O)OC[C@H]1O[C@@H](n2cnc3c(N)ncnc32)[C@H](O)[C@@H]1OP(=O)(O)O` [crotonyl-CoA], the dissociation constant (Kd) came out at 0.863 µM.
The figure for `CCCCCC(=O)SCCNC(=O)CCNC(=O)[C@H](O)C(C)(C)COP(=O)(O)OP(=O)(O)OC[C@H]1O[C@@H](n2cnc3c(N)ncnc32)[C@H](O)[C@@H]1OP(=O)(O)O` [hexanoyl-CoA] is 2.57 µM.
The figure for `CCCCCCCC(=O)SCCNC(=O)CCNC(=O)[C@H](O)C(C)(C)COP(=O)(O)OP(=O)(O)OC[C@H]1O[C@@H](n2cnc3c(N)ncnc32)[C@H](O)[C@@H]1OP(=O)(O)O` [octanoyl-CoA] is 2.64 µM.

(Values after PMC12003839 (Communications Biology, 2025).)
